Data from patent publication US7462472B2 (priority 2001, dated 2008).

Assays:
CaM = CaM (Homo sapiens, UniProt P0DP23, T111C/T35C); experiment: biochemical; type: binding
[1] = target: CaM34/110-AEDANS/DAB, human CaM mutant [change]/[change] labeled with donor and acceptor (human) (UniProt P0DP23); experiment: fluorescence (FRET) titration of donor-acceptor labeled CaM34/110 with CyaA1-412

Sequence of CyaA1-412, adenylyl cyclase domain (amino acids 1-412) of CyaA (J7QLC0 1-412): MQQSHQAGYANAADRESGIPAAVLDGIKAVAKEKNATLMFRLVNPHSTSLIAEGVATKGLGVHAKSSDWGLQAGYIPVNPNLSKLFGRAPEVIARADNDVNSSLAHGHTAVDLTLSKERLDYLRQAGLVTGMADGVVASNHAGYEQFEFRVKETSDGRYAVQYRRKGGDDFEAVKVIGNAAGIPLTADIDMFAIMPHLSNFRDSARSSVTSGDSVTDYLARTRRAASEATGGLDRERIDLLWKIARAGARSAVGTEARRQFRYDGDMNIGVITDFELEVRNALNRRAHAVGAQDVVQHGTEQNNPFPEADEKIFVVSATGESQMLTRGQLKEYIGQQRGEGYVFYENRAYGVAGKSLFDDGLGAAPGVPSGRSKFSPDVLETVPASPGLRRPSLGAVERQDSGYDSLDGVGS

Molecule | Kd (CaM) | Kd [1]
CC[C@H](C)[C@H](NC(=O)CNC(=O)[C@H](Cc1ccc(O)cc1)NC(=O)[C@H](CCCCN)NC(=O)[C@@H](NC(=O)[C@H](CC(C)C)NC(=O)[C@H](CC(C)C)NC(=O)[C@H](CC(N)=O)NC(=O)[C@@H](NC(=O)[C@@H](NC(=O)CNC(=O)[C@H](CCCCN)NC(=O)[C@H](CCC(N)=O)NC(=O)[C@H](CCCCN)NC(=O)[C@H](CCC(=O)O)NC(=O)[C@H](CC(C)C)NC(=O)[C@H](CO)NC(=O)[C@@H](N)CC(N)=O)C(C)C)[C@@H](C)O)[C@@H](C)CC)C(=O)N[C@@H](CCC(=O)O)C(=O)O [helix H peptide] | 8.8 µM | –
CyaA1-412, adenylyl cyclase domain (amino acids 1-412) of CyaA (from UniProt J7QLC0 1-412) (enzyme) | – | 10 µM
